Laboratory results published in ChEMBL document CHEMBL5303573, “Mapping human microbiome drug metabolism by gut bacteria and their genes” (Nature, 2019).

Key:
[1] = The drug is tested on Bacteroides ovatus strain: ATCC8483 for biotransformation. The drug concentrations were measured before and after a 12-h incubation by liquid-chromatography-coupled mass spectrometry (LC–MS); conditions: 2 µM
[2] = The drug is tested on Alistipes indistinctus strain: DSM22520 for biotransformation. The drug concentrations were measured before and after a 12-h incubation by liquid-chromatography-coupled mass spectrometry (LC–MS); conditions: 2 µM
[3] = The drug is tested on Anaerotruncus colihominis strain: DSM17241 for biotransformation. The drug concentrations were measured before and after a 12-h incubation by liquid-chromatography-coupled mass spectrometry (LC–MS); conditions: 2 µM
[4] = The drug is tested on Clostridium ramosum strain: DSM1402 for biotransformation. The drug concentrations were measured before and after a 12-h incubation by liquid-chromatography-coupled mass spectrometry (LC–MS); conditions: thomasclavelia ramosa, 2 µM
[5] = The drug is tested on Bacteroides sp. WH2 strain: WH2 for biotransformation. The drug concentrations were measured before and after a 12-h incubation by liquid-chromatography-coupled mass spectrometry (LC–MS); conditions: bacteroides sp. wh2, 12 h, 2 µM
[6] = bacteroides fragilis, 12 h, 2 µM
Description: The drug is tested on Bacteroides fragilis strain: DS-208 for biotransformation. The drug concentrations were measured before and after a 12-h incubation by liquid-chromatography-coupled mass spectrometry (LC–MS)

[7] = The drug is tested on Collinsella intestinalis strain: DSM13280 for biotransformation. The drug concentrations were measured before and after a 12-h incubation by liquid-chromatography-coupled mass spectrometry (LC–MS); conditions: 2 µM
[8] = The drug is tested on Eubacterium ventriosum strain: ATCC27560 for biotransformation. The drug concentrations were measured before and after a 12-h incubation by liquid-chromatography-coupled mass spectrometry (LC–MS); assay type: ADME; design: dose 2 uM, timepoint 0 vs 12 hours; conditions: 2 µM
[9] = The drug is tested on Dorea formicigenerans strain: ATCC27755 for biotransformation. The drug concentrations were measured before and after a 12-h incubation by liquid-chromatography-coupled mass spectrometry (LC–MS); conditions: 2 µM
[10] = The drug is tested on Escherichia coli strain: BW25113 for biotransformation. The drug concentrations were measured before and after a 12-h incubation by liquid-chromatography-coupled mass spectrometry (LC–MS); conditions: 2 µM
[11] = bacteroides fragilis, 12 h, 2 µM; remark: listed apart in the source
Description: The drug is tested on Bacteroides fragilis strain: 3397 (T10) for biotransformation. The drug concentrations were measured before and after a 12-h incubation by liquid-chromatography-coupled mass spectrometry (LC–MS)

[12] = bacteroides thetaiotaomicron, 12 h, 2 µM
Description: The drug is tested on Bacteroides thetaiotaomicron strain: 3731 for biotransformation. The drug concentrations were measured before and after a 12-h incubation by liquid-chromatography-coupled mass spectrometry (LC–MS)

[13] = The drug is tested on Bacteroides xylanisolvens strain: DSM18836 for biotransformation. The drug concentrations were measured before and after a 12-h incubation by liquid-chromatography-coupled mass spectrometry (LC–MS); conditions: 2 µM
[14] = The drug is tested on Bacteroides pectinophilus strain: ATCC43243 for biotransformation. The drug concentrations were measured before and after a 12-h incubation by liquid-chromatography-coupled mass spectrometry (LC–MS); conditions: 2 µM
[15] = The drug is tested on Blautia luti strain: DSM14534 for biotransformation. The drug concentrations were measured before and after a 12-h incubation by liquid-chromatography-coupled mass spectrometry (LC–MS); assay type: ADME; design: dose 2 uM, timepoint 0 vs 12 hours; conditions: 2 µM
[16] = The drug is tested on Edwardsiella tarda strain: ATCC23685 for biotransformation. The drug concentrations were measured before and after a 12-h incubation by liquid-chromatography-coupled mass spectrometry (LC–MS); conditions: 2 µM
[17] = The drug is tested on Blautia hansenii strain: DSM20583 for biotransformation. The drug concentrations were measured before and after a 12-h incubation by liquid-chromatography-coupled mass spectrometry (LC–MS); conditions: 2 µM
[18] = bacteroides thetaiotaomicron, 12 h, 2 µM; remark: listed apart in the source
Description: The drug is tested on Bacteroides thetaiotaomicron strain: VPI-5482 for biotransformation. The drug concentrations were measured before and after a 12-h incubation by liquid-chromatography-coupled mass spectrometry (LC–MS)

[19] = The drug is tested on Bacteroides coprophilus strain: DSM18228 for biotransformation. The drug concentrations were measured before and after a 12-h incubation by liquid-chromatography-coupled mass spectrometry (LC–MS); conditions: 2 µM

Structure (SMILES) | Bacterial Biotransformation [1] | Bacterial Biotransformation [2] | Bacterial Biotransformation [3] | Bacterial Biotransformation [4] | Bacterial Biotransformation [5] | Bacterial Biotransformation [7] | Bacterial Biotransformation [8] | Bacterial Biotransformation [9] | Bacterial Biotransformation [12] | Bacterial Biotransformation [13] | Bacterial Biotransformation [14] | Bacterial Biotransformation [15] | Bacterial Biotransformation [16] | Bacterial Biotransformation [17] | Bacterial Biotransformation [19] | Bacterial Biotransformation [6] | Bacterial Biotransformation [10] | Bacterial Biotransformation [11] | Bacterial Biotransformation [18]
CC(CN(C)C)CN1c2ccccc2CCc2ccccc21.O=C(O)/C=C\C(=O)O (centres undefined) [TRIMIPRAMINE MALEATE] | Compound NOT metabolized | Compound NOT metabolized | Compound NOT metabolized | Compound NOT metabolized | Compound NOT metabolized | Compound NOT metabolized | Compound NOT metabolized | Compound NOT metabolized | Compound NOT metabolized | Compound NOT metabolized | Compound NOT metabolized | Compound NOT metabolized | Compound NOT metabolized | Compound NOT metabolized | – | Compound NOT metabolized | Compound NOT metabolized | Compound NOT metabolized | –
CNS(=O)(=O)Cc1ccc2[nH]cc(CCN(C)C)c2c1.O=C(O)CCC(=O)O [SUMATRIPTAN SUCCINATE] | – | Compound NOT metabolized | Compound NOT metabolized | Compound NOT metabolized | Compound NOT metabolized | Compound NOT metabolized | Compound NOT metabolized | Compound NOT metabolized | – | Compound NOT metabolized | Compound NOT metabolized | Compound NOT metabolized | Compound NOT metabolized | Compound NOT metabolized | – | Compound metabolized | Compound NOT metabolized | – | Compound metabolized

Now from value to compound, other results behind:

Bacterial Biotransformation [1] | Bacterial Biotransformation [2] | Bacterial Biotransformation [3] | Bacterial Biotransformation [4] | Bacterial Biotransformation [5] | Bacterial Biotransformation [7] | Bacterial Biotransformation [8] | Bacterial Biotransformation [9] | Bacterial Biotransformation [12] | Bacterial Biotransformation [13] | Bacterial Biotransformation [14] | Bacterial Biotransformation [15] | Bacterial Biotransformation [16] | Bacterial Biotransformation [17] | Bacterial Biotransformation [19] | Structure (SMILES) | Bacterial Biotransformation [6] | Bacterial Biotransformation [10] | Bacterial Biotransformation [11] | Bacterial Biotransformation [18]
Compound NOT metabolized | Compound NOT metabolized | Compound NOT metabolized | Compound NOT metabolized | Compound NOT metabolized | Compound NOT metabolized | Compound NOT metabolized | Compound NOT metabolized | Compound NOT metabolized | Compound metabolized | Compound NOT metabolized | Compound NOT metabolized | Compound metabolized | Compound NOT metabolized | Compound NOT metabolized | CCCCc1nc(Cl)c(CO)n1Cc1ccc(-c2ccccc2-c2nn[nH]n2)cc1 [LOSARTAN] | – | – | – | –
Compound NOT metabolized | Compound NOT metabolized | Compound NOT metabolized | Compound NOT metabolized | Compound NOT metabolized | Compound NOT metabolized | Compound NOT metabolized | Compound NOT metabolized | – | Compound NOT metabolized | Compound NOT metabolized | Compound NOT metabolized | Compound NOT metabolized | Compound NOT metabolized | – | CCN1CCCC1CNC(=O)c1cc(S(N)(=O)=O)ccc1OC (centres undefined) [SULPIRIDE] | – | Compound NOT metabolized | – | –
Compound NOT metabolized | Compound NOT metabolized | Compound NOT metabolized | Compound NOT metabolized | Compound NOT metabolized | Compound NOT metabolized | Compound NOT metabolized | Compound NOT metabolized | Compound NOT metabolized | Compound NOT metabolized | Compound NOT metabolized | Compound NOT metabolized | Compound NOT metabolized | Compound NOT metabolized | Compound NOT metabolized | CC(N)C12CC3CC(CC(C3)C1)C2 (centres undefined) [RIMANTADINE] | Compound NOT metabolized | – | Compound NOT metabolized | Compound NOT metabolized
